In patent publication US9556202B2, “Sulfonamide derivatives and methods of use thereof for improving the pharmacokinetics of a drug” (MERCK SHARP & DOHME CORP., priority 2012, dated 2017):

Target: T1, human CYP11B2 (Homo sapiens, UniProt P19099)
T1 construct: expressed in transfected cells
T1 sequence (P19099 25-503): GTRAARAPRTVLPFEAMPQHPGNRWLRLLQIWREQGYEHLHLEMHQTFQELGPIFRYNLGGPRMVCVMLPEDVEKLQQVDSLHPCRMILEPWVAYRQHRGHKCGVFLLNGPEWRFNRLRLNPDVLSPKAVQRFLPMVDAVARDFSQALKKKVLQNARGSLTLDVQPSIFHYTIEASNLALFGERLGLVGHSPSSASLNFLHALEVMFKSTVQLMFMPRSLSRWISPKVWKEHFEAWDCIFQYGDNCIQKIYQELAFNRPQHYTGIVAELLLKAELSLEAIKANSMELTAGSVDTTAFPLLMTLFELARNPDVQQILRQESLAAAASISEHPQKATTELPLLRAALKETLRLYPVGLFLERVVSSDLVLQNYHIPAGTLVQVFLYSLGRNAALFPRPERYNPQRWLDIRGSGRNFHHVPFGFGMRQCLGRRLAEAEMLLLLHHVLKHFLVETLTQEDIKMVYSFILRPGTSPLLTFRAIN
Assay: IC50 vs CYP11B2 by aldosterone synthesis in V79 cells (HTRF)
Assay type: cell-based
Conditions: V79 cells expressing human CYP11B2, 750 nM DOC, test conc. 0.5-10000 nM, unit inferred
Description: Determination of IC50 Vs CYP11B1/CYP11B2 by Measurement of Cortisol/Aldosterone Synthesis
This assay was performed in a standard 384-well plate design using cultured V79 cells stably expressing human CYP11B1 or human CYP11B2. Test compounds at 10 concentrations (for example, 10000, 3333.3, 1111.1, 370.4, 123.5, 41.2, 13.7, 4.6, 1.5 and 0.5 nM) were added in 384-well plate after the cell-seeding procedure. The incubation substrate contains 1500 nM RSS for CYP11B1 assay/750 nM DOC for CYP11B2 assay. The Cortisol/Aldosterone production of cell culture supernatant was determined by Cortisol/Aldosterone HTRF kit after for about 15 hours incubation at RT (protect from light). IC50 values were calculated from the percent inhibition observed for each test compound at 10 concentrations.
The assay plate was read using Envision (Perkin Elmer, Waltham, Mass.) at 665 nm and 590 nm (using Filter Barcode of 217#, 205#; Mirror Barcode of 446#).
Data are analyzed using Assay Data Analyzer. All ratio data (665 nm/590 nm) are back calculated according to the standard curve, resulting in Cortisol/Aldosterone concentrations. IC50 values are reported as the Inflection Point (IP) of a four parameter fit of the titration data.
The following equation was used to calculate the % inhibition: % Activity=100×{1−(Sample_back calculated Cortisol/Aldosterone concentration−LC_back calculated Cortisol/Aldosterone concentration)/(HC_back calculated Cortisol/Aldosterone concentration−LC_back calculated Cortisol/Aldosterone concentration)} Curve Fitting: Four Parameter Logistic: […]

| Structure (SMILES) | IC50 [µM] |
| --- | --- |
| COCC(c1cncn1[C@H](C)c1ccc(F)cc1)N1CCN(S(=O)(=O)c2cnc(N3CCN(C)CC3)s2)CC1 (single isomer, unassigned) [Compound 35] | 5 |
| COCCC(c1cncn1[C@H](C)c1ccc(F)cc1)N1CCN(S(=O)(=O)c2cnc(N3CCN(C)CC3)s2)CC1 (single isomer, unassigned) [Compound 36] | 3.83 |
| C[C@H](c1ccc(F)cc1)n1cncc1C1CCCC2CN(S(=O)(=O)c3cnc(Nc4ccccn4)s3)CCN21 (single isomer, unassigned) [Compound 38] | 1.31 |
